Common to all, as to type: cell-based
In experiment [1] the test system is Gram-positive bacteria (Staphylococcus aureus 6538). As to the kind of experiment: 28-day double inoculation challenge test in sunscreen emulsion base, Gram-positive inoculum. On the procedure:
(§1) The test was conducted in sunscreen emulsion base, pH 7 (Table 3).
(§2) Method: The emulsion was formulated with 2% of the blend #1 or with the appropriate controls, plus water to add up to the 2% of the concentration in the emulsion.
(§3) Briefly, each tested sample was split into three containers to be challenged, respectively, with either of the three classes of common contaminants: Gram-positive bacteria, Gram-negative bacteria, and fungi. Accordingly, three types of inocula were prepared as outlined in the Table 4. The Gram-positive bacterial inoculum consisted of the single microorganism, while the Gram-negative bacterial inoculum and fungal inoculum, each, consisted of more than one species pooled together (Table 4).
(§4) The test samples were spiked with the microbial inoculum on days 0 and 21, with the final concentration of bacteria being 10^6 cfu/g and the final concentration of fungi being 10^5 cfu/g. Inoculated samples were incubated at ambient temperature. On days 2, 7, 21 and 28 the samples were plated to recover viable microorganisms. Letheen Agar was used for the recovery of bacteria and on Potato Dextrose Agar was used for the recovery of fungi.

Experiment [2] has as its system Gram-negative bacteria (Escherichia coli 8739, Pseudomonas aeruginosa 9027, Burkholderia cepacia 25416). As to the kind of experiment: 28-day double inoculation challenge test in sunscreen emulsion base, Gram-negative inoculum. On the procedure: as §1, §2, §3, §4
Experiment [3] concerns Fungi (Candida albicans 10231 and Aspergillus brasiliensis 16404). As to the kind of experiment: 28-day double inoculation challenge test in sunscreen emulsion base, fungal inoculum. The protocol:
as §1, §2, §3, §4

The mark [4] stands for this setting: 0.75% active, 1.25% water in sunscreen emulsion base, pH 7, 2 days.
[5] abbreviates: 0.75% active, 1.25% water in sunscreen emulsion base, pH 7, 7 days.
[6] abbreviates: 0.75% active, 1.25% water in sunscreen emulsion base, pH 7, 21 days (before re-inoculation).
Where [7] appears, read: 0.75% active, 1.25% water in sunscreen emulsion base, pH 7, 28 days (7 days after re-inoculation).
The mark [8] stands for this setting: 0.5% active, […] water in sunscreen emulsion base, pH 6.99, 2 days.
[9] abbreviates: 0.5% active, […] water in sunscreen emulsion base, pH 6.99, 7 days.
The mark [10] stands for this setting: 0.5% active, […] water in sunscreen emulsion base, pH 6.99, 21 days (before re-inoculation).
The mark [11] stands for this setting: 0.5% active, […] water in sunscreen emulsion base, pH 6.99, 28 days (7 days after re-inoculation).

Some results are limits rather than exact numbers.

With `OCCCc1ccccc1` [Phenylpropanol], the plate counts recovered was >10^4 cfu/g in experiment [1] (setting [4]); under 10 cfu/g in experiment [1] (setting [5]); under 10 cfu/g in experiment [1] (setting [6]); 1.30 × 10^3 cfu/g in experiment [1] (setting [7]); >10^4 cfu/g in experiment [2] (setting [4]); >10^4 cfu/g in experiment [2] (setting [5]). The plate counts recovered in experiment [2] (setting [6]) is recorded as 6.00 × 10^3 cfu/g; in experiment [2] (setting [7]), >10^4 cfu/g; in experiment [3] (setting [4]), 3.70 × 10^4 cfu/g; in experiment [3] (setting [5]), 1.80 × 10^4 cfu/g; in experiment [3] (setting [6]), 4.00 × 10^3 cfu/g; in experiment [3] (setting [7]), >10^4 cfu/g.

Regarding `CC(=O)CCc1ccc(O)cc1` [Raspberry ketone, 4-(4-hydroxyphenyl) butan-2-one], the plate counts recovered in experiment [1] (setting [8]) was >10^4 cfu/g; in experiment [1] (setting [9]), under 10 cfu/g; in experiment [1] (setting [10]), under 10 cfu/g; in experiment [1] (setting [11]), 2.1 × 10^2 cfu/g; in experiment [2] (setting [8]), >10^4 cfu/g; in experiment [2] (setting [9]), >10^4 cfu/g. Besides, the plate counts recovered in experiment [2] (setting [10]) is reported as 1.3 × 10^3 cfu/g; in experiment [2] (setting [11]), >10^4 cfu/g; in experiment [3] (setting [8]) it was 2.4 × 10^4 cfu/g; in experiment [3] (setting [9]), 2.40 × 10^4 cfu/g; in experiment [3] (setting [10]), 4.4 × 10^3 cfu/g; in experiment [3] (setting [11]), >10^4 cfu/g.

For `OCCCO` [1,3-Propanediol], the plate counts recovered in experiment [1] (setting [4]) is listed as >10^4 cfu/g; in experiment [1] (setting [5]) it was under 10 cfu/g; in experiment [1] (setting [6]) it was under 10 cfu/g; in experiment [2] (setting [4]), >10^4 cfu/g; in experiment [2] (setting [5]), under 10 cfu/g; in experiment [2] (setting [6]) it was under 10 cfu/g. Besides, the plate counts recovered in experiment [2] (setting [7]) is 2.00 × 10^2 cfu/g; in experiment [3] (setting [4]), 3.40 × 10^4 cfu/g; in experiment [3] (setting [5]), 1.6 × 10^4 cfu/g; in experiment [3] (setting [6]) it was 9.5 × 10^4 cfu/g; in experiment [3] (setting [7]) it was >10^4 cfu/g.

For the origin of these results see patent US20250040541A1, “AN ANTIMICROBIAL LIQUID COMPOSITION, PROCESS FOR PREPARING THE SAME AND METHOD OF USE THEREOF” (ISP Investments LLC, priority 2021, published 2025).
